Reference: patent US10351586B2, “Cytidine derivative dimers and applications thereof” (CHANGZHOU FANGYUAN PHARMACEUTICAL CO., LTD, priority 2014, dated 2019)
Marks after values point to notes of the source that are not given here.

System: HCT-116 human colon cancer xenografts
Assay: Tumor growth inhibition of HCT-116 human colon cancer xenografts in nude mice
Format: in vivo, Balb/c nude mice
Settings: for Relative tumor proliferation rate (T/C %) / Relative tumor volume (RTV) / Tumor growth inhibition rate (TGI %) / Tumor volume of HCT-116 human colon cancer xenografts: single IP injection (QD×1), D1 and D2 400 mg/kg, D3 350 mg/kg, D4 300 mg/kg; for Tumor volume of HCT-116 human colon cancer xenografts: Mean±SEM
Protocol: 2. Preparation of the test substance was performed by dissolving the test substance using the following solvents:
3. Animal experiments were performed. […] Animals were numbered using their tail number.
4.1 Tumor cells were human HCT-116 colon cancer cells purchased from the Institute of Cell Biology, Chinese Academy of Sciences (Beijing, China). F-12 medium (containing 10% FBS) was used to culture cells in a carbon dioxide incubator at about 37° C., saturated humidity, under 5% CO2 and 95% air. Before inoculation, cells in logarithmic growth phase were collected. After digested by 0.25% trypsin, the cells were washed with PBS once. The cells were resuspended with serum-free medium and counted. Serum-free medium were used for cell resuspension, until the cell concentration was adjusted to about 3×10^7 cell/mL.
4.2 Animal inoculation and grouping were performed.
The diameters (D) of the tumor nodules were measured three times a week with a circle sizer ruler. In addition, the following formula was applied to calculate the volume of the tumor nodules (V): V=[…](D/2)^3 generally for a spherical shape. Evaluation indexes of antitumor activity were tumor growth inhibition rate TGI (%) and relative tumor proliferation rate T/C (%).
The calculation formula of TGI was: TGI (%)=(Vcontrol−VTreatment)/Vcontrol)×100%. The relative tumor volume (RTV) was calculated by: RTV=Vt/V0, where V0 is the tumor volume at the time of group administration, and Vt is the tumor volume at the time of measurement.
The mice were weighed 3 times every week.
4.5 Data and statistical analysis were provided.

[1] = D1 400 mg/kg Day 7, D2 400 mg/kg Day 9, D3 350 mg/kg Day 11, D4 300 mg/kg Day 11, single IP

CCCCOC(=O)Nc1ccn(C2OC(COC(=O)CCC(=O)OC[C@H]3O[C@@H](n4ccc(NC(=O)OCc5ccccc5)nc4=O)C(F)(F)[C@@H]3O)C(O)C2(F)F)c(=O)n1 (stereo in doubt) [Compound D4, 1-O-(4-N-(Benzyloxycarbonyl)-gemcitabine)-4-O-(4-N-(n-Butoxycarbonyl)-gemcitabine)-succinate]
Relative tumor proliferation rate, minimum [1]: 25.94%
Tumor inhibition rate, maximum [1]: 97.32%
Relative tumor proliferation rate (T/C %) (Day 0): 0.00%
Relative tumor volume (RTV) (Day 0): 1.00
Tumor growth inhibition rate (TGI %) (Day 0): 0.00%
Tumor volume of HCT-116 human colon cancer xenografts (Day 0): 44.09 ± 5.99** mm^3
Relative tumor proliferation rate (T/C %) (Day 1): 77.07%
Relative tumor volume (RTV) (Day 1): 1.12 ± 0.12
Tumor growth inhibition rate (TGI %) (Day 1): 71.17%
Tumor volume of HCT-116 human colon cancer xenografts (Day 1): 52.03 ± 12.91** mm^3
Relative tumor proliferation rate (T/C %) (Day 2): 66.48%
Relative tumor volume (RTV) (Day 2): 1.12 ± 0.12
Tumor growth inhibition rate (TGI %) (Day 2): 76.55%
Tumor volume of HCT-116 human colon cancer xenografts (Day 2): 52.03 ± 12.91** mm^3
Relative tumor proliferation rate (T/C %) (Day 4): 43.31%
Relative tumor volume (RTV) (Day 4): 0.79 ± 0.11
Tumor growth inhibition rate (TGI %) (Day 4): 87.42%
Tumor volume of HCT-116 human colon cancer xenografts (Day 4): 37.37 ± 10.46** mm^3
Relative tumor proliferation rate (T/C %) (Day 7): 31.86%
Relative tumor volume (RTV) (Day 7): 0.55 ± 0.10
Tumor growth inhibition rate (TGI %) (Day 7): 94.11%
Tumor volume of HCT-116 human colon cancer xenografts (Day 7): 25.46 ± 8.17** mm^3
Relative tumor proliferation rate (T/C %) (Day 9): 30.55%
Relative tumor volume (RTV) (Day 9): 0.55 ± 0.12
Tumor growth inhibition rate (TGI %) (Day 9): 96.19%
Tumor volume of HCT-116 human colon cancer xenografts (Day 9): 22.50 ± 5.31** mm^3
Relative tumor proliferation rate (T/C %) (Day 11): 25.94%
Relative tumor volume (RTV) (Day 11): 0.69 ± 0.20
Tumor growth inhibition rate (TGI %) (Day 11): 97.32%
Tumor volume of HCT-116 human colon cancer xenografts (Day 11): 26.19 ± 5.79** mm^3
Relative tumor proliferation rate (T/C %) (Day 14): 32.83%
Relative tumor volume (RTV) (Day 14): 1.81 ± 0.54
Tumor growth inhibition rate (TGI %) (Day 14): 95.12%
Tumor volume of HCT-116 human colon cancer xenografts (Day 14): 70.28 ± 18.37** mm^3
Relative tumor proliferation rate (T/C %) (Day 16): 37.96%
Relative tumor volume (RTV) (Day 16): 3.29 ± 0.82
Tumor growth inhibition rate (TGI %) (Day 16): 92.12%
Tumor volume of HCT-116 human colon cancer xenografts (Day 16): 142.77 ± 49.34** mm^3
Relative tumor proliferation rate (T/C %) (Day 18): 26.76%
Relative tumor volume (RTV) (Day 18): 5.11 ± 1.12
Tumor growth inhibition rate (TGI %) (Day 18): 88.56%
Tumor volume of HCT-116 human colon cancer xenografts (Day 18): 228.58 ± 76.92** mm^3
Relative tumor proliferation rate (T/C %) (Day 21): 37.28%
Relative tumor volume (RTV) (Day 21): 8.73 ± 1.39
Tumor growth inhibition rate (TGI %) (Day 21): 84.66%
Tumor volume of HCT-116 human colon cancer xenografts (Day 21): 375.06 ± 86.27 mm^3
Relative tumor proliferation rate (T/C %) (Day 23): 50.04%
Relative tumor volume (RTV) (Day 23): 9.89 ± 1.30
Tumor growth inhibition rate (TGI %) (Day 23): 82.19%
Tumor volume of HCT-116 human colon cancer xenografts (Day 23): 420.73 ± 76.08 mm^3
Relative tumor proliferation rate (T/C %) (Day 25): 53.68%
Relative tumor volume (RTV) (Day 25): 11.61 ± 1.51
Tumor growth inhibition rate (TGI %) (Day 25): 80.98%
Tumor volume of HCT-116 human colon cancer xenografts (Day 25): 491.29 ± 83.78 mm^3
Relative tumor proliferation rate (T/C %) (Day 28): 69.72%
Relative tumor volume (RTV) (Day 28): 14.73 ± 2.18
Tumor growth inhibition rate (TGI %) (Day 28): 77.39%
Tumor volume of HCT-116 human colon cancer xenografts (Day 28): 608.08 ± 85.37 mm^3
Relative tumor proliferation rate (T/C %) (Day 30): 76.91%
Relative tumor volume (RTV) (Day 30): 19.08 ± 2.98
Tumor growth inhibition rate (TGI %) (Day 30): 72.14%
Tumor volume of HCT-116 human colon cancer xenografts (Day 30): 781.78 ± 105.33 mm^3
Inhibition of growth of HCT-116 human colon cancer xenografts (in words) (single IP injection, 300-400 mg/kg): higher tumor inhibition rates
